Assay results reported in patent US11560391B2, “Sulfonylurea compounds as inhibitors of interleukin-1 activity” (Genentech, Inc., priority 2018, dated 2023).

These molecules were tested against T1, NLRP3 inflammasome (Homo sapiens, UniProt Q96P20) (assay: NLRP3 inflammasome activation assay in LPS-primed, nigericin-stimulated PBMCs, IL-1β release). Settings: LPS 100 ng/mL priming, 10 μM nigericin; read-out: IL-1B pIC50 (converted).
T1 construct: freshly isolated from human peripheral blood from healthy donors; StemCells Technologies; host or cells: primary human PBMCs
T1 sequence (Q96P20 whole entry): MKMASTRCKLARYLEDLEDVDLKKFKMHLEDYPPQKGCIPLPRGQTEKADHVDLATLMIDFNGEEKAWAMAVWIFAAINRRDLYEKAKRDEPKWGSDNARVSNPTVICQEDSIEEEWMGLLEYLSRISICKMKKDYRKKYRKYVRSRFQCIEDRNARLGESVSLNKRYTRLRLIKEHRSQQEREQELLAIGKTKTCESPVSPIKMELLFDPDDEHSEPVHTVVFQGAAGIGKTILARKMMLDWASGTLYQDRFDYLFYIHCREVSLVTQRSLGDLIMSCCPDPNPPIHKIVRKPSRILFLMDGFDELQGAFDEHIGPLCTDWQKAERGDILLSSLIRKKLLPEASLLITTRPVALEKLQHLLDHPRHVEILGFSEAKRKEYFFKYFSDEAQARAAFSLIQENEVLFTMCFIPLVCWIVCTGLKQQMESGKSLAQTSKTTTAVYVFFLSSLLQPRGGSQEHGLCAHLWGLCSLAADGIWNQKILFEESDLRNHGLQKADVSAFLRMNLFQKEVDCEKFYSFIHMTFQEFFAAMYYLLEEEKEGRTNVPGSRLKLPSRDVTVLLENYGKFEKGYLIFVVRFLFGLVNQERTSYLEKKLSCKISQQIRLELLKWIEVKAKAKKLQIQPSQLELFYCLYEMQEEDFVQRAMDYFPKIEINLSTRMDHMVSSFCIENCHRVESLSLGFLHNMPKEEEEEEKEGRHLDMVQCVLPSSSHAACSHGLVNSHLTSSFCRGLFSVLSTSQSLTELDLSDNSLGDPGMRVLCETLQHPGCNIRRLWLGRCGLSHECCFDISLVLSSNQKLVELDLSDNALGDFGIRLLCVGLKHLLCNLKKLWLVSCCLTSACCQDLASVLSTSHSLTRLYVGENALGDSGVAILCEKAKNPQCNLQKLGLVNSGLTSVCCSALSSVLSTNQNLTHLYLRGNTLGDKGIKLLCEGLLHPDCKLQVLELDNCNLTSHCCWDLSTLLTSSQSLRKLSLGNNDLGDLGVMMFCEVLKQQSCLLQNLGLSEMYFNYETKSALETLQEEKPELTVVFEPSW
Assay type: cell-based
Description: Some of the following assays were used to determine the inhibitory activity of the compounds on the NLRP3 inflammasome using a common inflammasome activation stimuli-nigericin.
(§1) Human peripheral blood mononuclear cells (PBMCs), consisting of lymphocytes (T, B and NK cells), monocytes and dendritic cells, are freshly isolated from human peripheral blood from healthy donors. Cells are obtained through an IRB approved donor program by iXCells Biotechnologies where all the donors are tested for bacterial and viral infections. Cells are purified from peripheral blood using ficoll gradient centrifugation.
(§2) Fresh or cryopreserved PMBCs are seeded in V-bottom 96-well plate at 0.5-1×10^5 cells per well and incubated overnight at 37° C. with 5% CO2 in RPMI 1640 medium with GlutaMAX supplement, 4.5 g/L D-glucose, 10% Fetal Bovine Serum (FBS), […] Sodium Pyruvate, 1% Penicillin/Streptomycin, 10 mM HEPES and 0.05 mM of […]. Freshly isolated or cryopreserved KCs cells are seeded in flat-bottom 96-well plates at 0.6-1.5×10^5 cells/well and incubated overnight at 37° C., 5% CO2 in RPMI 1640 Medium with GlutaMAX supplement, FBS, 1% Penicillin/Streptomycin and 10 mM HEPES. The following day, the cells are primed with 100 ng/mL of lipopolysaccharides (LPS; Sigma Aldrich) in FBS-free RPMI 1640 for 3 h. After the priming step, the media is removed and PBMCs are pre-incubated with serial concentrations of test compounds (0.00017-10 uM) or vehicle (DMSO) for 30 min in FBS-free media prior to addition of the NLRP3 activator. Cells are then stimulated with 10 μM Nigericin (Sigma Aldrich; InvivoGen) for 1.5 h. Plates were centrifuged at 1,500 rpm for 3 minutes to pellet cells and supernatant was transferred into new plates for subsequent experiments.
For ELISA assays cells are seeded into 96-well plates. Post study, supernatants are removed and the levels of mature IL-1β, IL18 and TNFα (Quantikine ELISA, R&D systems) are measured in cell conditioned media by ELISA according to manufacturer's instructions.
Human frozen PBMCs were purchased from StemCells Technologies. Cells were rapidly thawed in 37° C. water bath and resuspended in fresh assay media consisting of RPMI 1640 Medium containing 1% sodium pyruvate, 10 mM HEPES, 2.5 g/L glucose and 55 μM 2-Mercaptoethanol. Cell density was adjusted to 8.1×10^5 cells/mL. Cells were primed by adding lipopolysaccharide (Invivogen Ultrapure lipopolysaccharide from E. coli, tlrl-3pelps) at a final concentration of 100 ng/mL in cell suspension. 37 μL of cell suspension with LPS was seeded per well of a 384 well plate and incubated for 3 hours at 37° C. and 5% CO2. After priming, PBMCs were preincubated with serially diluted test compounds with starting concentration of 40 μM followed by 2-fold dilution for a 20-point curve or vehicle (DMSO) for 30 min in assay media at 37° C. and 5% CO2. Cells were then stimulated with 10 μM nigericin (Invivogen, tlrl-nig-5) for 90 min at 37° C. and 5% CO2 to activate NLRP3 dependent inflammasome pathway and IL-1β release in cell culture supernatant. Cells were centrifuged at 1200 RPM for 1 min and 40 μL of supernatant was transferred into fresh plates and stored at −80° C. until IL-1β analysis.
16 μL of supernatant was added to white 384 well HTRF plates, followed by addition of 4 μL of HTRF cocktail in each well. Plates were quickly centrifuged, sealed and incubated overnight at room temperature. Next day, HTRF signal was read on a Pherastar and ratio of 665/620 was calculated based on manufacturer's protocol to obtain concentration of IL-1β in cell culture supernatant.

IC50 [nM]	Compound
100 to 1000	CC(C)c1cc(C2CC2)nc(C(C)C)c1NC(=O)NS(=O)(=O)c1cnn2c1OCCC2 [drawing 412]

Each molecule was assayed on PBMCs (assay: CTG (CellTiter-Glo) viability assay of compound-treated LPS and nigericin stimulated PBMCs). Settings: Homo sapiens, PBMC, LPS and nigericin stimulated cells; read-out: CTG pIC50 (converted).
Assay type: cell-based, human
Description: as §1, §2
Viability of compound treated cells is measured using CellTiter-Glo® assay (Promega, Madison, Wis.) that measures the ATP content of cells which is proportional to the number of live cells within a well. This is a counter-screen to establish that the reduction of IL-1β levels in LPS and nigericin stimulated and compound treated cells is not due to cytotoxicity, but rather through the inhibition of the inflammasome pathway. Compounds inhibiting NRLP3 inflammasome activation ultimately increase the viability of LPS and nigericin stimulated cells by blocking NLRP3 mediated pyroptosis that would otherwise lead to cell lysis.

Compound	IC50 [nM]
CC(C)c1cc(C2CC2)nc(C(C)C)c1NC(=O)NS(=O)(=O)c1cnn2c1OCCC2 [drawing 412]	100 to 1000

The molecules below were run on THP-1 ASC-GFP cells (assay: THP-1 ASC-GFP speck assay (NLRP3 inflammasome activation, nigericin)). Settings: THP1-ASC-GFP; PMA-differentiated, LPS primed, 10 μM nigericin.
Assay type: cell-based
Description: THP-1 ASC-GFP cell line was purchased from Invivogen, San Diego, for infammasome activation assay. THP-1 ASC-GFP cells stably express a 37.6 kDa ASC::GFP fusion protein that enables monitoring of spec formation by microscopy after activation of NLRP3 dependent inflammasome pathway. Cells were maintained at a density of 600,000 cells/mL in growth media consisting of RPMI 1640, 2 mM L-glutamine, 25 mM HEPES and 10% heat inactivated fetal bovine serum at 37° C. and 5% CO2. Cells were passaged every 3-4 days and used for assays for up to 20 passages.
THP-1 ASC-GFP cells were collected by centrifuging cells at 800 RPM for 5 minutes. Cell culture supernatant was removed and cells were re-suspended in fresh media at density of 1×10^6 cells/mL in assay media consisting of RPMI 1640, 2 mM L-glutamine, 25 mM HEPES and 10% heat inactivated fetal bovine serum. Phorbol 12-myristate 13-acetate (PMA) (Invivogen,tlrl-pma) was added to the cell suspension at a final concentration of 500 ng/ml and mixed thoroughly. 40,000 cells were added per well of a 384 well plate and differentiated into macrophages overnight at 37° C. and 5% CO2. Cells were primed with 1 μg/mL of lipopolysaccharide (Invivogen Ultrapure lipopolysaccharide from E. coli, tlrl-3pelps) in assay media for 3 hours at 37° C. and 5% CO2. After priming, media was removed and THP-1 ASC-GFP cells were preincubated with serially diluted test compounds with starting concentration of 40 μM followed by 2-fold dilution for a 20-point curve or vehicle (DMSO) for 30 min in assay media at 37° C. and 5% CO2. Cells were then stimulated with 10 μM nigericin (Invivogen, tlrl-nig-5) for 90 min at 37° C. and 5% CO2 to activate NLRP3 dependent inflammasome pathway and spec formation. After stimulation, cells were fixed with 4.8% paraformaldehyde (Electron Microscopy Sciences #15710-S) and incubated at room temperature for 15 min. Cells were then washed 3-times with 100 μL of phosphate buffered saline and permeabilized in the presence of premeablization/block buffer for 20 min at room temperature. Cells were then washed 3-times with 100 μL phosphate buffered saline and incubated for 1 hr at room temperature in the presence of hoechst. After staining with Hoechst, cells were washed 3-times with 100 μL phosphate buffered saline and imaged for ASC spec formation.
THP-1 ASC-GFP cells were imaged in 488 and Hoechst channels. Hoechst channel was used for cell count and 488 channel was used to identify number of GFP ASC specks in imaged fields. Percentage of cells with a spec was calculated by dividing the number of GFP positive spots by total number of cells.

IC50 [nM]	Compound
570	CO[C@@H]1COc2c(S(=O)(=O)NC(=O)Nc3c4c(nn3C(C)C)CCC4)cnn2C1 [Example 60a, Sodium (S)—N-((2-isopropyl-2,4,5,6-tetrahydrocyclopenta[c]pyrazol-3-yl)carbamoyl)-6-methoxy-6,7-dihydro-5H-pyrazolo[5,1-b][1,3]oxazine-3-sulfonamide]
150	CO[C@@H]1COc2c(S(=O)(=O)NC(=O)Nc3c(C(C)C)cc(C(F)(F)F)nc3C(C)C)cnn2C1 [Example 80a, (S)—N-((2,4-diisopropyl-6-(trifluoromethyl)pyridin-3-yl)carbamoyl)-6-methoxy-6,7-dihydro-5H-pyrazolo[5,1-b][1,3]oxazine-3-sulfonamide, ammonia]
560	CC(C)c1cc(C(F)(F)F)nc(C(C)C)c1NC(=O)NS(=O)(=O)c1cnn2c1OC[C@@H](N(C)C)C2 [Example 76a, (S)—N-((2,4-diisopropyl-6-(trifluoromethyl)pyridin-3-yl)carbamoyl)-6-(dimethylamino)-6,7-dihydro-5H-pyrazolo[5,1-b][1,3]oxazine-3-sulfonamide]
2500	CN[C@@H]1COc2c(S(=O)(=O)NC(=O)Nc3c(C(C)C)nn(CC(F)(F)F)c3C(C)C)cnn2C1 [Example 72a, (S)—N-((3,5-diisopropyl-1-(2,2,2-trifluoroethyl)-1H-pyrazol-4-yl)carbamoyl)-6-(methylamino)-6,7-dihydro-5H-pyrazolo[5,1-b][1,3]oxazine-3-sulfonamide, ammonia]

More lines, now with the values behind:

Compound	IC50 [nM]
CC(C)c1cc(C(F)(F)F)nc(C(C)C)c1NC(=O)NS(=O)(=O)c1cnn2c1OCC(C)(C)C2 [Example 82, N-((2,4-diisopropyl-6-(trifluoromethyl)pyridin-3-yl)carbamoyl)-6,6-dimethyl-6,7-dihydro-5H-pyrazolo[5,1-b][1,3]oxazine-3-sulfonamide]	1400
CC(C)c1cc(OC2CC2)nc(C(C)C)c1NC(=O)NS(=O)(=O)c1cnn2c1OCCC2 [Example 81, Sodium N-((6-cyclopropoxy-2,4-diisopropylpyridin-3-yl)carbamoyl)-6,7-dihydro-5H-pyrazolo[5,1-b][1,3]oxazine-3-sulfonamide]	8200
CO[C@@H]1COc2c(S(=O)(=O)NC(=O)Nc3c(C(C)C)nn(CC(F)(F)F)c3C(C)C)cnn2C1 [Example 59a, (S)—N-((3,5-diisopropyl-1-(2,2,2-trifluoroethyl)-1H-pyrazol-4-yl)carbamoyl)-6-methoxy-6,7-dihydro-5H-pyrazolo[5,1-b][1,3]oxazine-3-sulfonamide, ammonia]	170
CC(C)c1nn(C(F)(F)F)c(C(C)C)c1NC(=O)NS(=O)(=O)c1cnn2c1OCC(C)(C)C2 [Example 79, N-((3,5-diisopropyl-1-(trifluoromethyl)-1H-pyrazol-4-yl)carbamoyl)-6,6-dimethyl-6,7-dihydro-5H-pyrazolo[5,1-b][1,3]oxazine-3-sulfonamide]	740
CC(C)c1nn(CC(F)F)c(C(C)C)c1NC(=O)NS(=O)(=O)c1cnn2c1OCCC2 [Example 63, N-((1-(2,2-difluoroethyl)-3,5-diisopropyl-1H-pyrazol-4-yl)carbamoyl)-6,7-dihydro-5H-pyrazolo[5,1-b][1,3]oxazine-3-sulfonamide, ammonia]	350
CC(C)c1nn(CC(F)(F)F)c(C(C)C)c1NC(=O)NS(=O)(=O)c1cnn2c1OCC(C)(C)C2 [Example 75, N-((3,5-diisopropyl-1-(2,2,2-trifluoroethyl)-1H-pyrazol-4-yl)carbamoyl)-6,6-dimethyl-6,7-dihydro-5H-pyrazolo[5,1-b][1,3]oxazine-3-sulfonamide, ammonia]	420
CC(C)c1nn(CC(F)F)c(C(C)C)c1NC(=O)NS(=O)(=O)c1cnn2c1OCC(C)(C)C2 [Example 57, N-((1-(2,2-difluoroethyl)-3,5-diisopropyl-1H-pyrazol-4-yl)carbamoyl)-6,6-dimethyl-6,7-dihydro-5H-pyrazolo[5,1-b][1,3]oxazine-3-sulfonamide, ammonia]	560
CCn1nc(C(C)C)c(NC(=O)NS(=O)(=O)c2cnn3c2OCC(C)(C)C3)c1C(C)C [Example 65, N-((1-ethyl-3,5-diisopropyl-1H-pyrazol-4-yl)carbamoyl)-6,6-dimethyl-6,7-dihydro-5H-pyrazolo[5,1-b][1,3]oxazine-3-sulfonamide, ammonia]	1400
COc1cc(-c2nc(C(F)(F)F)cc(C(C)C)c2NC(=O)NS(=O)(=O)c2cnn3c2OCCC3)ccn1 [Example 74, Sodium N-((4-isopropyl-2′-methoxy-6-(trifluoromethyl)-[2,4′-bipyridin]-3-yl)carbamoyl)-6,7-dihydro-5H-pyrazolo[5,1-b][1,3]oxazine-3-sulfonamide]	340
CC(C)c1cc(OC(F)(F)F)nc(C(C)C)c1NC(=O)NS(=O)(=O)c1cnn2c1OCCC2 [Example 71, Sodium N-((2,4-diisopropyl-6-(trifluoromethoxy)pyridin-3-yl)carbamoyl)-6,7-dihydro-5H-pyrazolo[5,1-b][1,3]oxazine-3-sulfonamide]	1900
